The values that follow come from article PMC4012000 (Pharmaceutical research, 2013).

The experiment concerns Caco-2 cells. Briefly: Effect of curcumin on efflux transporters and permeability in Caco-2 cells. The class given is cell-based. Particulars: in vitro studies, data not shown. In general terms: Passage across Caco-2 layers is used to estimate intestinal permeability.

Regarding `COc1cc(/C=C/C(=O)CC(=O)/C=C/c2ccc(O)c(OC)c2)ccc1O` [curcumin, Curcumin], the “effect on efflux transporters” value is “down-regulation of BCRP, MDR1 and MRP1”.
